Measurements taken from patent US9084785B2, “Composition for accelerating change in muscle type” (AMOREPACIFIC CORPORATION, priority 2010, dated 2015).

What was measured:
C57BL/6 mice [1] = experiment: Blood analysis (blood sugar, serum triglyceride and cholesterol); format: in vivo, mouse; conditions: 200 mg/kg oral once a day, 8 weeks
Description: 5-week-old male C57BL/6 mice were grouped with 10 mice per group. They were orally administered with Gynostemma pentaphyllum leaf extract, Artemisia princeps extract, astragali radix extract or EPA alone, a mixture of Artemisia princeps extract, Gynostemma pentaphyllum leaf extract and astragali radix extract or a mixture of EPA, Gynostemma pentaphyllum leaf extract and astragali radix extract (200 mg/kg) as test substances for 8 weeks, once a day. Then, blood analysis was performed to evaluate blood sugar level and serum triglyceride and cholesterol levels. The blood sugar level was measured using the Accu-Check Active kit (Roche Diagnostics, Seoul, Korea). The blood sample was centrifuged at 3000 rpm for 10 minutes to separate serum. Triglyceride and cholesterol levels in the separated serum were analyzed using the […] analyzer (Vital Scientific, […], The Netherlands).

C57BL/6 mice [2] = experiment: Change in muscle type (slow-twitch myosin staining of plantaris muscle); format: in vivo, mouse; conditions: 200 mg/kg oral once a day, 8 weeks
Description: 5-week-old male C57BL/6 mice were grouped with 10 mice per group to evaluate change in muscle type after administration of test substances. The experimental mice were orally administered with Gynostemma pentaphyllum leaf extract, Artemisia princeps extract, astragali radix extract or EPA alone, a mixture of Artemisia princeps extract, Gynostemma pentaphyllum leaf extract and astragali radix extract or a mixture of EPA, Gynostemma pentaphyllum leaf extract and astragali radix extract (200 mg/kg) as test substances for 8 weeks, once a day. The mice were fasted for 12 hours before autopsy. Plantaris muscle was taken from the mice of each test group and frozen in liquid nitrogen. The frozen tissue was sliced to 10-μm thickness using a cryotome, fixed in acetone for 10 minutes, and washed 3 times with PBS. After blocking for 2 hours with PBS containing 10% FBS, the tissue sections were treated with anti-slow-twitch myosin antibody (Abcam, Cambridge, UK) as primary antibody and with fluorescein isothiocyanate (FITC)-conjugated anti-mouse IgG antibody (Molecular Probes) as secondary antibody. After mounting with antifade solution, the sections were examined by confocal microscopy.

## CC/C=C\C/C=C\C/C=C\C/C=C\C/C=C\CCCC(=O)O [EPA, eicosapentaenoic acid]
C57BL/6 mice [1]
  Blood sugar: 181.2 ± 10.9 mg/dL
C57BL/6 mice [1]; serum
  Cholesterol: 164.9 ± 12.1 mg/dL
  Triglyceride: 101.23 ± 11.3 mg/dL
C57BL/6 mice [2]
  Fast-twitch muscle (%): 70.6 ± 3.6%
  Slow-twitch muscle (%): 29.4 ± 4.2%
